These compounds were tested on solubilizing enzyme of HB-EGF (assay: Inhibition of TPA-stimulated release of HB-EGF from HT-1080 transfectant expressing HB-EGF/alkaline phosphatase fusion protein). Conditions: HT-1080 HB-EGF-AP transfectant, TPA 60 nM for 60 min, AP activity in conditioned medium (OD405).
Type: cell-based, human
Description: Human fibrosarcoma HT-1080 stable transfectant expressing fusion protein of HB-EGF and human placental alkaline phosphatase (AP) were used for following experiments.
The cultured transfectant was treated with Trypsin-EDTA solution, and suspended in Minimum Essential Medium (without phenol red; supplemented with 10% heat-inactivated fetal calf serum; MEM) at the concentration of 1×10^5 cells/ml. Each 0.2 ml of the cell suspension was dispensed into individual wells of 96 well microplate, and incubated overnight in the CO2 incubator (37° C.). After the incubation, the conditioned medium was removed, and the wells were washed once with 0.2 ml of phosphate buffered saline. The cells were treated with 0.1 ml of compound solution [compound solutions in dimethylsulfoxide (DMSO) were diluted 100 times with MEM] for 30 min at 37° C. Then the compound solutions were removed, and cells were treated with 0.2 ml of TPA solution (120 μM) of stock solution was diluted to 60 nM with MEM) containing same concentration of the compound for 60 min at 37° C. The cells treated same procedure without compound were used as control.
After these treatments, each 0.1 ml of conditioned medium was transferred to individual wells of new 96 well microplate and incubated at 65° C. for 10 min to inactivate endogenous alkaline phosphatase. One hundred microliter of substrate solution (1 mg/ml of p-nitrophenyl phosphate in 0.01% magnesium chloride/1 M diethanolamine) for AP was added to each well and incubated for 120 min at room temperature in the dark. The OD405 of each well was measured with microplate reader. The IC50 values of the compounds were calculated from the concentration-inhibition curves.

Compound	IC50
O=C(NO)C1Cc2nccnc2CN1S(=O)(=O)c1ccc(Oc2ccncc2)cc1 (racemic) [the compound(2), (±)-N-Hydroxy-6-[4-(pyridine-4-yloxy)benzenesulfonyl]-5,6,7,8-tetrahydropyrido[3,4-b]pyrazine-7-carboxamide]	990 nM
O=C(NO)C1Cc2nccnc2CN1S(=O)(=O)c1ccc(Oc2cnccn2)cc1 (racemic) [the compound(5), (±)-N-Hydroxy-6-[4-(pyrazine-2-yloxy)benzenesulfonyl]-5,6,7,8-tetrahydropyrido[3,4-b]pyrazine-7-carboxamide]	900 nM
CSCCCOc1ccc(S(=O)(=O)N2Cc3nccnc3CC2C(=O)NO)cc1 (racemic) [the compound(10), (±)-N-Hydroxy-6-[4-(3-methylthiopropoxy)benzenesulfonyl]-5,6,7,8-tetrahydropyrido[3,4-b]pyrazine-7-carboxamide]	340 nM

Same assay, conditions: HT-1080 HB-EGF-AP transfectant, TPA 60 nM for 60 min, AP activity in conditioned medium (OD405); read-out: IC50

Compound	IC50
COc1ccc(S(=O)(=O)N2Cc3nccnc3CC2C(=O)NO)cc1 (racemic) [the compound(1), (±)-N-Hydroxy-6-(4-methoxybenzenesulfonyl)-5,6,7,8-tetrahydropyrido[3,4-b]pyrazine-7-carboxamide]	800 nM
O=C(NO)C1Cc2nccnc2CN1S(=O)(=O)c1ccc(Oc2ccccc2)cc1 (racemic) [the compound(3), (±)-N-Hydroxy-6-(4-phenoxybenzenesulfonyl)-5,6,7,8-tetrahydropyrido[3,4-b]pyrazine-7-carboxamide]	1000 nM
COCCCOc1ccc(S(=O)(=O)N2Cc3nccnc3CC2C(=O)NO)cc1 (racemic) [the compound(4), (±)-N-Hydroxy-6-[4-(3-methoxypropoxy)benzenesulfonyl]-5,6,7,8-tetrahydropyrido[3,4-b]pyrazine-7-carboxamide]	240 nM
Nc1ccc(Oc2ccc(S(=O)(=O)N3Cc4nccnc4CC3C(=O)NO)cc2)cc1 (racemic) [the compound(6), (±)-N-Hydroxy-6-[4-(4-aminophenoxy)benzenesulfonyl]-5,6,7,8-tetrahydropyrido[3,4-b]pyrazine-7-carboxamide]	1100 nM
CCOCCOc1ccc(S(=O)(=O)N2Cc3nccnc3CC2C(=O)NO)cc1 (racemic) [the compound(7), (±)-N-Hydroxy-6-[4-(2-ethoxyethoxy)benzenesulfonyl]-5,6,7,8-tetrahydropyrido[3,4-b]pyrazine-7-carboxamide]	260 nM
COCCOc1ccc(S(=O)(=O)N2Cc3nccnc3CC2C(=O)NO)cc1 (racemic) [the compound(8), (±)-N-Hydroxy-6-[4-(2-methoxyethoxy)benzenesulfonyl]-5,6,7,8-tetrahydropyrido[3,4-b]pyrazine-7-carboxamide]	840 nM
CCCCCOc1ccc(S(=O)(=O)N2Cc3nccnc3CC2C(=O)NO)cc1 (racemic) [the compound(9), (±)-N-Hydroxy-6-(4-pentyloxybenzenesulfonyl)-5,6,7,8-tetrahydropyrido[3,4-b]pyrazine-7-carboxamide]	460 nM
COCCCCOc1ccc(S(=O)(=O)N2Cc3nccnc3CC2C(=O)NO)cc1 (racemic) [the compound(11), (±)-N-Hydroxy-6-[4-(methoxybutoxy)benzenesulfonyl]-5,6,7,8-tetrahydropyrido[3,4-b]pyrazine-7-carboxamide]	1400 nM
CCOCCCOc1ccc(S(=O)(=O)N2Cc3nccnc3CC2C(=O)NO)cc1 (racemic) [the compound(12), (±)-N-Hydroxy-6-[4-(ethoxypropoxy)benzenesulfonyl]-5,6,7,8-tetrahydropyrido[3,4-b]pyrazine-7-carboxamide]	160 nM
O=C(NO)C1Cc2nccnc2CN1S(=O)(=O)c1ccc(OCCF)cc1 (single isomer, unassigned; (+)) [the compound(18), (+)-N-Hydroxy-6-[4-(2-fluoroethoxy)benzenesulfonyl]-5,6,7,8-tetrahydropyrido[3,4-b]pyrazine-7-carboxamide]	160 nM
CC(C)COc1ccc(S(=O)(=O)N2Cc3nccnc3CC2C(=O)NO)cc1 (single isomer, unassigned; (+)) [the compound(22), (+)-N-Hydroxy-6-(4-isobuthoxybenzenesulfonyl)-5,6,7,8-tetrahydropyrido[3,4-b]pyrazine-7-carboxamide]	3600 nM
CCOCCCOc1ccc(S(=O)(=O)N2Cc3nccnc3CC2C(=O)NO)cc1 (single isomer, unassigned; (+)) [the compound(23), (+)-N-Hydroxy-6-[4-(3-ethoxypropoxy)benzenesulfonyl]-5,6,7,8-tetrahydropyrido[3,4-b]pyrazine-7-carboxamide]	92 nM
O=C(NO)C1Cc2nccnc2CN1S(=O)(=O)c1ccc(OCCCBr)cc1 (single isomer, unassigned; (+)) [the compound(24), (+)-N-Hydroxy-6-[4-(3-bromopropoxy)benzenesulfonyl]-5,6,7,8-tetrahydropyrido[3,4-b]pyrazine-7-carboxamide]	600 nM
CCCCOCCCOc1ccc(S(=O)(=O)N2Cc3nccnc3CC2C(=O)NO)cc1 (single isomer, unassigned; (+)) [the compound(25), (+)-N-Hydroxy-6-[4-(3-buthoxypropoxy)benzenesulfonyl]-5,6,7,8-tetrahydropyrido[3,4-b]pyrazine-7-carboxamide]	260 nM
CC(C)COCCCOc1ccc(S(=O)(=O)N2Cc3nccnc3CC2C(=O)NO)cc1 (single isomer, unassigned; (+)) [the compound(26), (+)-N-Hydroxy-6-[4-(3-isobuthoxypropoxy)benzenesulfonyl]-5,6,7,8-tetrahydropyrido[3,4-b]pyrazine-7-carboxamide]	560 nM
CC(C)(C)C(=O)Oc1ccc(S(=O)(=O)N2Cc3nccnc3CC2C(=O)NO)cc1 (single isomer, unassigned; (+)) [the compound(28), (+)-N-Hydroxy-6-(4-pivaloyloxybenzenesulfonyl)-5,6,7,8-tetrahydropyrido[3,4-b]pyrazine-7-carboxamide]	2800 nM
N#CCCOc1ccc(S(=O)(=O)N2Cc3nccnc3CC2C(=O)NO)cc1 (single isomer, unassigned; (+)) [the compound(29), (+)-N-Hydroxy-6-[4-(2-cyanoethoxy)benzenesulfonyl]-5,6,7,8-tetrahydropyrido[3,4-b]pyrazine-7-carboxamide]	200 nM
CCOC(=O)COc1ccc(S(=O)(=O)N2Cc3nccnc3CC2C(=O)NO)cc1 (single isomer, unassigned; (+)) [the compound(30), (+)-N-Hydroxy-6-(4-ethoxycarbonylmethoxy-benzenesulfonyl)-5,6,7,8-tetrahydropyrido[3,4-b]pyrazine-7-carboxamide]	1000 nM
Cc1ccc(S(=O)(=O)N2Cc3nccnc3CC2C(=O)NO)cc1 (single isomer, unassigned; (+)) [the compound(31), (+)-N-Hydroxy-6-(4-methylbenzenesulfonyl)-5,6,7,8-tetrahydropyrido[3,4-b]pyrazine-7-carboxamide]	2700 nM
CCOC(=O)CCCOc1ccc(S(=O)(=O)N2Cc3nccnc3CC2C(=O)NO)cc1 (single isomer, unassigned; (+)) [the compound(32), (+)-N-Hydroxy-6-[4-(3-ethoxycarbonylpropoxy)benzenesulfonyl]-5,6,7,8-tetrahydropyrido[3,4-b]pyrazine-7-carboxamide]	1100 nM
